Assay results: article PMC8167858, “Crystal structure of a novel homodimeric L‐ribulose 3‐epimerase from Methylomonus sp” (FEBS Open Bio, 2021)

How the values were obtained:
[1] = biological target: T1, MetLRE (MetLRE_his) (Methylomonas sp. DH-1, UniProt A0A172U6X0); assay: X-ray crystal structure, […] Å; format: binding; conditions: crystal soaked in 15% (w/v) D-fructose; catalytic site with Mn2+; second site: beta-D-fructopyranose on surface near C terminus of Mol-A
T1 construct: gene AYM39_05640
T1 sequence (A0A172U6X0 1-286): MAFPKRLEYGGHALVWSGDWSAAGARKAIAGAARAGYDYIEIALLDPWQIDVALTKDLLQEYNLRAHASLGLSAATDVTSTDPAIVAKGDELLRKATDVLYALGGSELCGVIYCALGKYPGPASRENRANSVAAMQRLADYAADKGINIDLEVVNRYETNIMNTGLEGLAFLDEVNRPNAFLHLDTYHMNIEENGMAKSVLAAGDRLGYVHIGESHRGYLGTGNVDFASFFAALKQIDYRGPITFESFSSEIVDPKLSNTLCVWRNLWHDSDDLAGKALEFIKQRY

[2] = biological target: T2, his_MetLRElong2 (Methylomonas sp. DH-1, UniProt A0A172U6X0, Y9I/Y37F/INS286TAIKTIELH/Y286L, form not given); assay: X-ray crystal structure, […] Å; format: binding; conditions: 0.1 M HEPES pH 7.5, PEG 8000, 8% ethylene glycol
T2 construct: gene AYM39_05640; full length with Y9I, Y37F, Y286L and nine extra residues TAIKTIELH added after residue 286 at the C terminus; N-terminal His-tag from pET15b (kept), E. coli BL21(DE3), homodimer

[3] = biological target: T1, MetLRE (MetLRE_his); assay: X-ray crystal structure, […] Å; format: binding
[4] = biological target: T1, MetLRE (MetLRE_his); assay: thermal shift assay (SYPRO Orange); format: binding; conditions: melting temperature, not a shift: reference with Mn alone Tm1_Mn 72.5 ± 0.03 °C; 4 mM D-allulose, 0.8 mM MnCl2, 40 mM Tris/HCl pH 7.6; two-step unfolding, first transition
Description: thermal shift assay (SYPRO Orange) on MetLRE (MetLRE_his) | in the presence of Mn and D‐allulose (cyan line)

[5] = biological target: T3, his_MetLRE (Methylomonas sp. DH-1, UniProt A0A172U6X0); assay: X-ray crystal structure, […] Å; format: binding; conditions: 0.1 M HEPES pH 7.5, PEG 8000, 8% ethylene glycol
T3 construct: gene AYM39_05640; full length 286 aa, N-terminal His-tag from pET15b (kept), E. coli BL21(DE3), homodimer
T3 sequence (A0A172U6X0 1-286): T1 sequence (A0A172U6X0 1-286)

[6] = biological target: the molecule itself; assay: crystal structure; his_MetLRE (with D-allulose) and his_MetLRElong2 (with D-fructose); reservoir 0.1 M HEPES pH 7.5, 10% PEG 8000, 8% ethylene glycol; space group P1, six and eight molecules in an asymmetric unit; symmetry operation and PISA analysis
[7] = substrate: O=C(CO)[C@@H](O)[C@@H](O)CO; assay: epimerization, product by HPLC; format: biochemical, Methylomonas sp. DH-1; conditions: 50 mM Tris/HCl pH 7.5, 1 mM MnCl2, 70 °C (conditions of the specificity assay)
[8] = biological target: the molecule itself; assay: crystal structure; MetLRE_his crystals, alone and soaked with D-fructose, D-allulose or L-tagatose; reservoir 0.2 M MgCl2, 0.1 M Tris/HCl pH 8.5, 25% PEG3350, 293 K; two molecules in an asymmetric unit

OCC1(O)OC[C@@H](O)[C@@H](O)[C@@H]1O (stereo partly drawn) [D-fructose]
X-ray crystal structure, 1.80 Å [1]: MetLRE_his in complex with D‐fructose was crystallized in the orthorhombic space group | X-ray crystal structure, 1.58 Å [2]: the crystal structure of his_MetLRElong2 in complex with D‐fructose was determined

OCC1(O)OC[C@H](O)[C@@H](O)[C@H]1O (stereo partly drawn) [L-tagatose]
X-ray crystal structure, 1.70 Å ([3]; crystal soaked in 15% (w/v) L-tagatose, catalytic site of Mol-B with Mn2+, second site: alpha-L-tagatopyranose on surface of Mol-B): The bound L‐tagatose was found in the catalytic site of Mol‐B

OCC1(O)OC[C@@H](O)[C@@H](O)[C@H]1O (stereo partly drawn) [D-allulose]
Tm1_MnA [4]: 78.5 ± 0.1 °C | X-ray crystal structure, 2.05 Å [5]: His_MetLRE in complex with D‐allulose was obtained in the triclinic space group P1

OCC1(O)OC[C@H](O)[C@@H](O)[C@@H]1O (stereo partly drawn) [L-sorbose]
X-ray crystal structure, 1.70 Å ([3]; formed from soaked L-tagatose in crystal, catalytic site of Mol-A with Mn2+): L‐sorbose (C3 epimer of L‐tagatose) was bound in the catalytic site

B1: N-terminal His-tagged MetLRElong2 (his_MetLRE with nine additional residues TAIKTIELH at the C terminus and three mutations Y9I, Y37F, Y286L) (enzyme, Methylomonas sp. DH-1)
chain: MAFPKRLEIGGHALVWSGDWSAAGARKAIAGAARAGFDYIEIALLDPWQIDVALTKDLLQEYNLRAHASLGLSAATDVTSTDPAIVAKGDELLRKATDVLYALGGSELCGVIYCALGKYPGPASRENRANSVAAMQRLADYAADKGINIDLEVVNRYETNIMNTGLEGLAFLDEVNRPNAFLHLDTYHMNIEENGMAKSVLAAGDRLGYVHIGESHRGYLGTGNVDFASFFAALKQIDYRGPITFESFSSEIVDPKLSNTLCVWRNLWHDSDDLAGKALEFIKQRLTAIKTIELH
notes: L-ribulose 3-epimerase from Methylomonas sp; DH-1, NCBI WP_064020855.1, 286 a.a., with three mutations; nine additional residues at the C terminus, chosen on the tetramer form of AgDAE; source: E. coli BL21(DE3) (pET15b, plasmid pETMetLRElong2), purified (HisTrap HP); not shown: His tag, N-terminal, kept
stoichiometry N [6]: 2

B2: MetLRE (MetLRE_his) (Methylomonas sp. DH-1) (protein)
chain: T1 sequence (A0A172U6X0 1-286)
Km [7]: 22.4 ± 3.4 mM | kcat [7]: 82.05 ± 5.77 s⁻¹

B3: C-terminal His-tagged L-ribulose 3-epimerase from Methylomonas sp. DH-1 (MetLRE_his) (enzyme, UniProt A0A172U6X0 1-286, looked up)
chain: T1 sequence (A0A172U6X0 1-286)
notes: L-ribulose 3-epimerase (putative sugar isomerase/epimerase) from Methylomonas sp; DH-1, NCBI WP_064020855.1, 286 a.a; synthesized gene amplified from the start codon to the last codon (Y286), then a linker beginning at Gly287 and the His tag; Linker and tag follow Y286: Gly287 and Ser288 are in the linker; also called putative sugar isomerase/epimerase; source: E. coli JM109 (pQE60, plasmid …)
stoichiometry N [8]: 2

B4: N-terminal His-tagged L-ribulose 3-epimerase from Methylomonas sp. DH-1 (his_MetLRE) (enzyme, UniProt A0A172U6X0 1-286, looked up)
chain: T1 sequence (A0A172U6X0 1-286)
notes: L-ribulose 3-epimerase from Methylomonas sp; DH-1, NCBI WP_064020855.1, 286 a.a; primers from the start codon to the stop codon; N-terminal tag and additional residues come from pET15b; source: E. coli BL21(DE3) (pET15b, plasmid pETMetLRE), purified (HisTrap HP); not shown: His tag, N-terminal, kept
stoichiometry N [6]: 2
